Results published in patent publication US6472348B1, “Pyridone derivatives and herbicides” (Kumiai Chemical Industry Co., Ltd., priority 1996, dated 2002).

Tests used:
barnyardgrass (Ec) [1] = test: Test Example 1: herbicidal effects by paddy field soil treatment; assay type: in vivo; details: 100 g of the active ingredient per 10 ares, 21st day after the application, index 0-5 of Table 47;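 also: grade of growth control; 5 = at least 90%; 4 = 70 to 90%; 3 = 50 to 70%; 2 = 30 to 50%; 1 = 10 to 30%; 0 = under 10%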
Procedure, shortened: (§1)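 Herbicidal effect was scored against a graded standard 21 days after treatment. Seeds were sown in puddled, leveled paddy soil flooded to 3 cm depth, and the active ingredient was applied at 100 g per 10 ares before greenhouse culture.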

bulrush (Sc) = test: as above; assay type: in vivo; details: 100 g of the active ingredient per 10 ares, 21st day after the application, index 0-5 of Table 47;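 also: grade of growth control; 5 = at least 90%; 4 = 70 to 90%; 3 = 50 to 70%; 2 = 30 to 50%; 1 = 10 to 30%; 0 = under 10%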
Procedure, shortened: as §1

monochoria (Mo) = test: as above; assay type: in vivo; details: 100 g of the active ingredient per 10 ares, 21st day after the application, index 0-5 of Table 47;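 also: grade of growth control; 5 = at least 90%; 4 = 70 to 90%; 3 = 50 to 70%; 2 = 30 to 50%; 1 = 10 to 30%; 0 = under 10%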
Procedure, shortened: as §1

Digitaria ciliaris (Di) = test: Test Example 2: herbicidal effects by upland field soil treatment; assay type: in vivo; details: 100 g of the active ingredient per 10 ares, evaluated on the 21st day after application;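 also: grade of growth control; 5 = at least 90%; 4 = 70 to 90%; 3 = 50 to 70%; 2 = 30 to 50%; 1 = 10 to 30%; 0 = under 10%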
Source text: (§2) (Test on Herbicidal Effects by Upland Field Soil Treatment)

barnyardgrass (Ec) [2] = test: as above; assay type: in vivo; details: 100 g of the active ingredient per 10 ares, evaluated on the 21st day after application
Source text: as §2

[3] = test system: common lambsquarters (Ch); test: as above; assay type: in vivo; details: 100 g of the active ingredient per 10 ares, evaluated on the 21st day after application
Source text: as §2

pale smartweed (Po) [4] = test: as above; assay type: in vivo; details: 100 g of the active ingredient per 10 ares, evaluated on the 21st day after application
Source text: as §2

rice flatsedge (Ci) [5] = test: as above; assay type: in vivo; details: 100 g of the active ingredient per 10 ares, evaluated on the 21st day after application
Source text: as §2

slender amaranth (Am) [6] = test: as above; assay type: in vivo; details: 100 g of the active ingredient per 10 ares, evaluated on the 21st day after application
Source text: as §2

Diaitaria ciliaris (Di) [7] = test: Test Example 3: herbicidal effects by upland field foliage treatment; assay type: in vivo; design: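 grade of growth control; 5 = at least 90%; 4 = 70 to 90%; 3 = 50 to 70%; 2 = 30 to 50%; 1 = 10 to 30%; 0 = under 10%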; details: 100 g active ingredient per 10 ares, evaluated 14th day after treatment
Procedure, shortened: (§3)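 Weeds were sown in sand-filled pots (surface area: 120 cm^2), covered with soil and grown in a greenhouse for 2 weeks before foliar treatment. Plants then stayed in the greenhouse, and herbicidal effect was scored against graded standards on the 14th day after treatment.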

barnyardgrass (Ec) [8] = test: as above; assay type: in vivo; design: scale not given here; details: 100 g active ingredient per 10 ares, evaluated 14th day after treatment
Procedure, shortened: as §3

[9] = test system: common lambsquarters (Ch); test: as above; assay type: in vivo; design: scale not given here; details: 100 g active ingredient per 10 ares, evaluated 14th day after treatment
Procedure, shortened: as §3

pale smartweed (Po) [10] = test: as above; assay type: in vivo; design: scale not given here; details: 100 g active ingredient per 10 ares, evaluated 14th day after treatment
Procedure, shortened: as §3

rice flatsedge (Ci) [11] = test: as above; assay type: in vivo; design: scale not given here; details: 100 g active ingredient per 10 ares, evaluated 14th day after treatment
Procedure, shortened: as §3

slender amaranth (Am) [12] = test: as above; assay type: in vivo; design: scale not given here; details: 100 g active ingredient per 10 ares, evaluated 14th day after treatment
Procedure, shortened: as §3

cotton (Go) = test: Test Example 4: crop plant selectivity by upland field soil treatment (cotton), phytotoxicity; assay type: in vivo; design: scale not given here; details: dose 6.3 g ai/10 a, evaluated 21st day after application
Procedure, shortened: (§4)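 Seeds of cotton and several weed species were sown in sand-filled pots and covered with soil before soil treatment with the test compound. Plants were grown in a greenhouse, and herbicidal effect and crop phytotoxicity were scored against set standards 21 days after application.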

Diaitaria ciliaris (Di) [13] = test: Test Example 4: crop plant selectivity by upland field soil treatment (cotton), herbicidal effects; assay type: in vivo; details: dose 6.3 g ai/10 a, evaluated 21st day after application
Method: (§5) (Test on Crop Plant Selectivity by Upland Field Soil Treatment)
In a plastic pot (surface area: 600 cm^2) filled with sand, cotton (Go), Diaitaria ciliaris (Di), green foxtail (Se), pale smartweed (Po), slender amaranth (Am), common lambsquarters (Ch) and China jute (Ab) were sown and covered with soil. […] The plants were then cultured in a green house, and the evaluation of the herbicidal effects and phytotoxicity was conducted on the 21st day after the application in accordance with the standards as identified in Table 47. Symbol—represents “not tested”.

China jute (Ab) [14] = test: as above; assay type: in vivo; design: scale not given here; details: dose 6.3 g ai/10 a, evaluated 21st day after application
Procedure, shortened: as §4

[15] = test system: common lambsquarters (Ch); test: as above; assay type: in vivo; design: scale not given here; details: dose 6.3 g ai/10 a, evaluated 21st day after application
Procedure, shortened: as §4

pale smartweed (Po) [16] = test: as above; assay type: in vivo; design: scale not given here; details: dose 6.3 g ai/10 a, evaluated 21st day after application
Procedure, shortened: as §4

slender amaranth (Am) [17] = test: as above; assay type: in vivo; design: scale not given here; details: dose 6.3 g ai/10 a, evaluated 21st day after application
Procedure, shortened: as §4

soybean (Gl) = test: Test Example 6: crop plant selectivity by upland field soil treatment (soybean), phytotoxicity; assay type: in vivo; design: scale not given here; details: dose 6.3 g ai/10a, 21st day after application
Procedure, shortened: (§6)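 Soybean and weeds sown in sand-filled pots and covered with soil, then treated by soil application. Plants grown in a greenhouse, with herbicidal effect and crop phytotoxicity scored on day 21 after application against a fixed rating scale.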

Diaitaria ciliaris (Di) [18] = test: Test Example 6: crop plant selectivity by upland field soil treatment (soybean), herbicidal effects; assay type: in vivo; details: dose 6.3 g ai/10a, 21st day after application
Method: as §5
(§7) In a plastic pot (surface area: 600 cm^2) filled with sand, soybean (Gl), Diaitaria ciliaris (Di), green foxtail (Se), Johnsongrass (So), pale smartweed (Po), slender amaranth (Am), common lambsquarters (Ch) and China jute (Ab) were sown and covered with soil. […] The plants were then cultured in a green house, and the evaluation of the herbicidal effects and phytotoxicity was conducted on the 21st day after the application in accordance with the standards as identified in Table 47. Symbol—represents “not tested”.

Johnsongrass (So) = test: as above; assay type: in vivo; details: dose 6.3 g ai/10a, 21st day after application
Method: as §5, §7

China jute (Ab) [19] = test: as above; assay type: in vivo; design: scale not given here; details: dose 6.3 g ai/10a, 21st day after application
Procedure, shortened: as §6

[20] = test system: common lambsquarters (Ch); test: as above; assay type: in vivo; design: scale not given here; details: dose 6.3 g ai/10a, 21st day after application
Procedure, shortened: as §6

pale smartweed (Po) [21] = test: as above; assay type: in vivo; design: scale not given here; details: dose 6.3 g ai/10a, 21st day after application
Procedure, shortened: as §6

slender amaranth (Am) [22] = test: as above; assay type: in vivo; design: scale not given here; details: dose 6.3 g ai/10a, 21st day after application
Procedure, shortened: as §6

corn (Ze) = test: Test Example 11: crop plant selectivity by upland field foliage treatment (corn), phytotoxicity; details: corn; foliage treatment; dose 1.6 g ai/10a; evaluated on 14th day after treatment; index per Table 47
Procedure, shortened: (§8)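 Corn with pale smartweed, slender amaranth, common lambsquarters and China jute sown in sand-filled pots and grown 2 weeks in a greenhouse before foliage treatment. Herbicidal effect and crop phytotoxicity scored on day 14 after treatment against a rating standard.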

China jute (Ab) [23] = test: Test Example 11: crop plant selectivity by upland field foliage treatment (corn), herbicidal effects; assay type: in vivo; design: scale not given here; details: China jute; foliage treatment; dose 1.6 g ai/10a; evaluated on 14th day after treatment; index per Table 47
Procedure, shortened: as §8

[24] = test system: common lambsquarters (Ch); test: as above; assay type: in vivo; design: scale not given here; details: common lambsquarters; foliage treatment; dose 1.6 g ai/10a; evaluated on 14th day after treatment; index per Table 47
Procedure, shortened: as §8

pale smartweed (Po) [25] = test: as above; assay type: in vivo; design: scale not given here; details: pale smartweed; foliage treatment; dose 1.6 g ai/10a; evaluated on 14th day after treatment; index per Table 47
Procedure, shortened: as §8

slender amaranth (Am) [26] = test: as above; assay type: in vivo; design: scale not given here; details: slender amaranth; foliage treatment; dose 1.6 g ai/10a; evaluated on 14th day after treatment; index per Table 47
Procedure, shortened: as §8

C#CCOc1cc(-c2cn(C)c(C(F)(F)F)cc2=O)c(F)cc1Cl [Compound 6-9]
0: Phytotoxicity Go (cotton (Go)) | Phytotoxicity Gl (soybean (Gl))
5: Herbicidal effects Ec (barnyardgrass (Ec) [1]) | Herbicidal effects Sc (bulrush (Sc)) | Herbicidal effects Mo (monochoria (Mo)) | Herbicidal effects Di (Digitaria ciliaris (Di)) | Herbicidal effects Ec (barnyardgrass (Ec) [2]) | Herbicidal effects Ch [3] | Herbicidal effects Po (pale smartweed (Po) [4]) | Herbicidal effects Ci (rice flatsedge (Ci) [5]) | Herbicidal effects Am (slender amaranth (Am) [6]) | Herbicidal effects Di (Diaitaria ciliaris (Di) [7]) | Herbicidal effects Ec (barnyardgrass (Ec) [8]) | Herbicidal effects Ch [9] | Herbicidal effects Po (pale smartweed (Po) [10]) | Herbicidal effects Ci (rice flatsedge (Ci) [11]) | Herbicidal effects Am (slender amaranth (Am) [12]) | Herbicidal effects Di (Diaitaria ciliaris (Di) [13]) | Herbicidal effects Ab (China jute (Ab) [14]) | Herbicidal effects Ch [15] | Herbicidal effects Po (pale smartweed (Po) [16]) | Herbicidal effects Am (slender amaranth (Am) [17]) | Herbicidal effects Di (Diaitaria ciliaris (Di) [18]) | Herbicidal effects So (Johnsongrass (So)) | Herbicidal effects Ab (China jute (Ab) [19]) | Herbicidal effects Ch [20] | Herbicidal effects Po (pale smartweed (Po) [21]) | Herbicidal effects Am (slender amaranth (Am) [22]) | Herbicidal effects Ab (China jute (Ab) [23]) | Herbicidal effects Ch [24] | Herbicidal effects Po (pale smartweed (Po) [25]) | Herbicidal effects Am (slender amaranth (Am) [26])
1: Phytotoxicity Ze (corn (Ze))
